{"source": "ChEMBL document CHEMBL3232889", "about": "“Identification of novel SIRT2-selective inhibitors using a click chemistry approach” (Bioorg Med Chem Lett, 2014)", "note": "Active and inactive are the calls of the source.", "data": [{"target": "T1, NAD-dependent protein deacetylase sirtuin-3, mitochondrial (Homo sapiens, UniProt Q9NTG7)", "T1 sequence (Q9NTG7 whole entry)": "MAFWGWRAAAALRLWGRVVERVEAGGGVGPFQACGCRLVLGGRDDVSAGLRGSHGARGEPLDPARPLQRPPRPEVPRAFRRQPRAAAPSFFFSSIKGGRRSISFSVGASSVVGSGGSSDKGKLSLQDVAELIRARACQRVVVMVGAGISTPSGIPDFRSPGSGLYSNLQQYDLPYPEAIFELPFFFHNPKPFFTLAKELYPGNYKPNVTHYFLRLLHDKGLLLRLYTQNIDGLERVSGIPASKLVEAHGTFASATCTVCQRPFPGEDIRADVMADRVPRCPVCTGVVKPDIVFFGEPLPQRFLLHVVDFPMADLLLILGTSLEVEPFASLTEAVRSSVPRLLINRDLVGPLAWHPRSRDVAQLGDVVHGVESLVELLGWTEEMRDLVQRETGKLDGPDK", "test": "Inhibition of human recombinant SIRT3 using Fluor-de-Lys as substrate incubated for 60 mins prior to substrate addition measured after 60 mins by fluorometric analysis", "conditions": "not given", "units": {"IC50": "µM"}, "values": [{"smiles": "NC(=O)c1ccccc1Nc1cccc(-c2cn(CCC3CCCC3)nn2)c1", "IC50": "> 100"}, {"smiles": "NC(=O)c1ccccc1Nc1ccc(-c2cn(Cc3ccccc3)nn2)cc1", "IC50": "> 100"}]}, {"target": "T2, NAD-dependent protein deacetylase sirtuin-1 (Homo sapiens) (UniProt Q96EB6)", "T2 sequence (whole entry)": "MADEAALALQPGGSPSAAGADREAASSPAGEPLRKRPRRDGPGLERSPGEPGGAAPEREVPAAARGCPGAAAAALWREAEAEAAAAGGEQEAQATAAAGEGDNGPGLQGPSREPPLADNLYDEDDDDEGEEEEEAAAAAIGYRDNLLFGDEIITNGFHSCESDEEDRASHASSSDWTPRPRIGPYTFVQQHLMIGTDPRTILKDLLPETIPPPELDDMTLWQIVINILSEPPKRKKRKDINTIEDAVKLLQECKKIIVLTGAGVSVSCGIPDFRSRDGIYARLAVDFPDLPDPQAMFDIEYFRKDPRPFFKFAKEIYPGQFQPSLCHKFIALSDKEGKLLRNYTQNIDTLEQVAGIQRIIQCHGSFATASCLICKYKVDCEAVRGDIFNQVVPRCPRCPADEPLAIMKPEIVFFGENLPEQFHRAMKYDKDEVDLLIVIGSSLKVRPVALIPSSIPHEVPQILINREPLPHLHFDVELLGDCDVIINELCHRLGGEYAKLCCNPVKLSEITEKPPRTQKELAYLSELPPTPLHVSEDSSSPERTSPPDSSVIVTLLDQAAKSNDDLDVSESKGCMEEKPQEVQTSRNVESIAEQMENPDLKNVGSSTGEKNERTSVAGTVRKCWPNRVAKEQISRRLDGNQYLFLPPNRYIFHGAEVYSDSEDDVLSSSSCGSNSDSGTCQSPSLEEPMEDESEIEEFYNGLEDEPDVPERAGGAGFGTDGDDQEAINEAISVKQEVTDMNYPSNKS", "test": "Inhibition of human recombinant SIRT1 using Fluor-de-Lys as substrate at 10 uM incubated for 60 mins prior to substrate addition measured after 60 mins by fluorometric analysis", "conditions": "not given", "values": [{"smiles": "NC(=O)c1ccccc1Nc1cccc(-c2cn(CCC3CCCC3)nn2)c1", "inhibition": "inactive"}, {"smiles": "NC(=O)c1ccccc1Nc1ccc(-c2cn(Cc3ccccc3)nn2)cc1", "inhibition": "inactive"}]}, {"target": "T3, NAD-dependent protein deacetylase sirtuin-3, mitochondrial (Homo sapiens) (UniProt Q9NTG7)", "T3 sequence (whole entry)": "T1 sequence (Q9NTG7 whole entry)", "test": "Inhibition of human recombinant SIRT3 using Fluor-de-Lys as substrate at 10 uM incubated for 60 mins prior to substrate addition measured after 60 mins by fluorometric analysis", "conditions": "not given", "values": [{"smiles": "NC(=O)c1ccccc1Nc1cccc(-c2cn(CCC3CCCC3)nn2)c1", "inhibition": "inactive"}, {"smiles": "NC(=O)c1ccccc1Nc1ccc(-c2cn(Cc3ccccc3)nn2)cc1", "inhibition": "inactive"}]}, {"target": "T4, NAD-dependent protein deacetylase sirtuin-2 (Homo sapiens, UniProt Q8IXJ6)", "T4 sequence (Q8IXJ6 whole entry)": "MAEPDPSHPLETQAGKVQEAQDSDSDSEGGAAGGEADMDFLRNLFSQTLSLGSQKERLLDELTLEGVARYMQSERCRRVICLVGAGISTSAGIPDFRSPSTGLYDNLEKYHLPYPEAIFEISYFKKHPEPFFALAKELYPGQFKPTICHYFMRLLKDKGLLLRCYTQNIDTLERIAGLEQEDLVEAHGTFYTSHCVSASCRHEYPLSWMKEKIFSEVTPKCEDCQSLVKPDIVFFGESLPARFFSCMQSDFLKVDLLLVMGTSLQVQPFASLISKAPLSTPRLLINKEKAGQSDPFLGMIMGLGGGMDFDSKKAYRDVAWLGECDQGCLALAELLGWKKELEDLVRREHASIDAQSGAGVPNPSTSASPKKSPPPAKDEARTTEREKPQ", "test": "Inhibition of human recombinant SIRT2 using Fluor-de-Lys as substrate incubated for 60 mins prior to substrate addition measured after 60 mins by fluorometric analysis", "conditions": "not given", "units": {"IC50": "µM"}, "values": [{"smiles": "NC(=O)c1ccccc1Nc1cccc(-c2cn(CCC3CCCC3)nn2)c1", "IC50": 5.3}, {"smiles": "NC(=O)c1ccccc1Nc1ccc(-c2cn(Cc3ccccc3)nn2)cc1", "IC50": 6.3}]}, {"target": "T5, NAD-dependent protein deacetylase sirtuin-1 (Homo sapiens, UniProt Q96EB6)", "T5 sequence (Q96EB6 whole entry)": "T2 sequence (whole entry)", "test": "Inhibition of human recombinant SIRT1 using Fluor-de-Lys as substrate incubated for 60 mins prior to substrate addition measured after 60 mins by fluorometric analysis", "conditions": "not given", "units": {"IC50": "µM"}, "values": [{"smiles": "NC(=O)c1ccccc1Nc1cccc(-c2cn(CCC3CCCC3)nn2)c1", "IC50": "> 100"}, {"smiles": "NC(=O)c1ccccc1Nc1ccc(-c2cn(Cc3ccccc3)nn2)cc1", "IC50": "> 100"}]}, {"target": "T6, NAD-dependent protein deacetylase sirtuin-2 (Homo sapiens) (UniProt Q8IXJ6)", "T6 sequence (whole entry)": "T4 sequence (Q8IXJ6 whole entry)", "conditions": "at 10 µM", "description": "Inhibition of human recombinant SIRT2 using Fluor-de-Lys as substrate at 10 uM incubated for 60 mins prior to substrate addition measured after 60 mins by fluorometric analysis", "values": [{"smiles": "COc1cccc(CCN=[N+]=[N-])c1", "inhibition": "Active"}, {"smiles": "Cc1ccc(N=[N+]=[N-])cc1", "inhibition": "Active"}, {"smiles": "[N-]=[N+]=NCCc1cccc(Cl)c1", "inhibition": "Active"}, {"smiles": "[N-]=[N+]=NCc1cccc(-c2ccccc2)c1", "inhibition": "Active"}, {"smiles": "[N-]=[N+]=Nc1ccc(Br)cc1", "inhibition": "Active"}, {"smiles": "[N-]=[N+]=NCc1ccc(-c2ccccc2)cc1", "inhibition": "Active"}, {"smiles": "[N-]=[N+]=Nc1ccc(F)cc1", "inhibition": "Active"}, {"smiles": "COc1ccccc1CCN=[N+]=[N-]", "inhibition": "Active"}, {"smiles": "Cc1cccc(CCN=[N+]=[N-])c1", "inhibition": "Active"}, {"smiles": "[N-]=[N+]=NCCc1cccc2ccccc12", "inhibition": "Active"}, {"smiles": "[N-]=[N+]=NCCc1ccccc1[N+](=O)[O-]", "inhibition": "Active"}, {"smiles": "[N-]=[N+]=NCCC1CCCC1", "inhibition": "Active"}, {"smiles": "[N-]=[N+]=NCC(=O)c1ccccc1", "inhibition": "Active"}, {"smiles": "COc1ccc(CN=[N+]=[N-])cc1", "inhibition": "Active"}, {"smiles": "[N-]=[N+]=NCCc1ccccn1", "inhibition": "Active"}, {"smiles": "[N-]=[N+]=NC[S+]([O-])c1ccccc1", "note": "(stereo unspecified)", "inhibition": "Active"}, {"smiles": "[N-]=[N+]=NCC1CCCCC1", "inhibition": "Active"}, {"smiles": "[N-]=[N+]=NCCC1CCCCC1", "inhibition": "Active"}, {"smiles": "[N-]=[N+]=NCCc1ccc(Cl)cc1", "inhibition": "Active"}, {"smiles": "[N-]=[N+]=NCCN1CCOCC1", "inhibition": "Active"}, {"smiles": "C#Cc1cccc(Nc2ccccc2C(N)=O)c1", "inhibition": "Active"}, {"smiles": "Cc1ncsc1CCN=[N+]=[N-]", "inhibition": "Active"}, {"smiles": "COc1ccc(CCN=[N+]=[N-])cc1", "inhibition": "Active"}, {"smiles": "Cc1ccc(N=[N+]=[N-])cc1C", "inhibition": "Active"}, {"smiles": "[N-]=[N+]=N/C=C/c1ccccc1", "inhibition": "Active"}, {"smiles": "[N-]=[N+]=Nc1ccc(N)cc1", "inhibition": "Active"}, {"smiles": "Cc1ccc(CCN=[N+]=[N-])cc1", "inhibition": "Active"}, {"smiles": "[N-]=[N+]=NCCc1ccccc1C(F)(F)F", "inhibition": "Active"}, {"smiles": "[N-]=[N+]=NCCc1c[nH]c2ccccc12", "inhibition": "Active"}, {"smiles": "[N-]=[N+]=Nc1ccc(O)cc1", "inhibition": "Active"}, {"smiles": "[N-]=[N+]=NCCc1ccsc1", "inhibition": "Active"}, {"smiles": "[N-]=[N+]=Nc1ccc(I)cc1", "inhibition": "Active"}, {"smiles": "[N-]=[N+]=NCc1cccc2ccccc12", "inhibition": "Active"}, {"smiles": "[N-]=[N+]=Nc1ccccc1-c1ccccc1", "inhibition": "Active"}, {"smiles": "[N-]=[N+]=Nc1ccccc1", "inhibition": "Active"}, {"smiles": "N#C/C(=C\\c1ccc(-c2cc(Cl)ccc2Cl)o1)C(=O)Nc1cccc2ncccc12", "inhibition": "Active"}, {"smiles": "[N-]=[N+]=NCc1ccccc1", "inhibition": "Active"}, {"smiles": "[N-]=[N+]=NCCc1ccc([N+](=O)[O-])cc1", "inhibition": "Active"}, {"smiles": "[N-]=[N+]=NCS(=O)(=O)c1ccccc1", "inhibition": "Active"}, {"smiles": "NC(=O)c1ccccc1Nc1cccc(-c2cn(CCC3CCCC3)nn2)c1", "inhibition": "Active"}, {"smiles": "[N-]=[N+]=NCCc1ccccc1F", "inhibition": "Active"}, {"smiles": "[N-]=[N+]=NCC12CC3CC(CC(C3)C1)C2", "inhibition": "Active"}, {"smiles": "Cc1ccccc1CCN=[N+]=[N-]", "inhibition": "Active"}, {"smiles": "[N-]=[N+]=NCc1ccc2ccccc2c1", "inhibition": "Active"}, {"smiles": "[N-]=[N+]=NCCc1ccc(C(F)(F)F)cc1", "inhibition": "Active"}, {"smiles": "[N-]=[N+]=NCCc1ccccc1Cl", "inhibition": "Active"}, {"smiles": "[N-]=[N+]=NCCc1cccc(C(F)(F)F)c1", "inhibition": "Active"}, {"smiles": "NC(=O)c1ccccc1Nc1ccc(-c2cn(Cc3ccccc3)nn2)cc1", "inhibition": "Active"}, {"smiles": "Cc1cccc(C)c1NC(=O)CN=[N+]=[N-]", "inhibition": "Active"}, {"smiles": "[N-]=[N+]=Nc1cccc2ccccc12", "inhibition": "Active"}, {"smiles": "[N-]=[N+]=NCCc1cccc(F)c1", "inhibition": "Active"}, {"smiles": "[N-]=[N+]=NCCCCCc1ccccc1", "inhibition": "Active"}, {"smiles": "[N-]=[N+]=NCCc1ccc(F)cc1", "inhibition": "Active"}, {"smiles": "[N-]=[N+]=NCCc1ccccc1", "inhibition": "Active"}, {"smiles": "COc1ccc(N=[N+]=[N-])cc1", "inhibition": "Active"}, {"smiles": "C#Cc1ccc(Nc2ccccc2C(N)=O)cc1", "inhibition": "Active"}, {"smiles": "[N-]=[N+]=NCC(=O)Nc1ccc(F)cc1", "inhibition": "Active"}, {"smiles": "[N-]=[N+]=NCSc1ccccc1", "inhibition": "Active"}, {"smiles": "[N-]=[N+]=NCCc1ccc2ccccc2c1", "inhibition": "Active"}, {"smiles": "[N-]=[N+]=NCCCc1ccccc1", "inhibition": "Active"}, {"smiles": "[N-]=[N+]=NCCC12CC3CC(CC(C3)C1)C2", "inhibition": "Active"}]}]}
